Columns and labels:
[1] = test system: Trichoderma reesei cellulase composition; test: Nitrogen-containing compound effect(no GH61) on hydrolysis of AVICEL by T. reesei cellulase composition; assay type: biochemical; conditions: for reduction in hydrolysis: no GH61
Description: The concentration of 1,2-benzenediamine compounds was 5 mM and the concentration of 2-aminophenol was 1 mM.
The concentration of nitrogen-containing compounds was 5 mM.
(§1) The concentration of the GH61 polypeptide was either 0.4 or 2 mg per g cellulose.

[2] = test system: Penicillium pinophilum GH61A polypeptide; test: Effect of TEMPO on P. pinophilum GH61A during AVICEL hydrolysis by T. reesei cellulase composition; assay type: biochemical; conditions: GH61 0.4 or 2 mg per g cellulose, day 7
Description: as §1

[3] = target: Aspergillus fumigatus GH61B polypeptide (Aspergillus fumigatus, UniProt Q4WP32); test: Effect of TEMPO on A. fumigatus GH61B during AVICEL hydrolysis by T. reesei cellulase composition; assay type: biochemical; conditions: GH61 0.4 or 2 mg per g cellulose, day 7
Description: as §1

[4] = test system: Talaromyces stipitatus GH61 polypeptide; test: Effect of TEMPO on T. stipitatus GH61 during AVICEL hydrolysis by T. reesei cellulase composition; assay type: biochemical; conditions: GH61 0.4 or 2 mg per g cellulose, day 7
Description: as §1

[5] = target: Trichoderma reesei GH61B polypeptide (Trichoderma reesei, UniProt Q7Z9M7); test: Effect of TEMPO on T. reesei GH61B during AVICEL hydrolysis by T. reesei cellulase composition; assay type: biochemical; conditions: GH61 0.4 or 2 mg per g cellulose, day 7
Description: as §1

[6] = test system: Thielavia terrestris GH61E polypeptide; test: Effect of TEMPO on T. terrestris GH61E during AVICEL hydrolysis by T. reesei cellulase composition; assay type: biochemical
Description: as §1

[7] = test system: Trichoderma reesei cellulase composition; test: Hydrolysis of AVICEL by T. reesei cellulase composition with and without GH61 polypeptide, no nitrogen-containing compound; assay type: biochemical
From the text: Microcrystalline cellulose was used as the source of the cellulosic material.

[8] = test system: T. reesei cellulase composition; test: AVICEL cellulolysis by T. reesei cellulase composition with combinations of compounds and various GH61 polypeptides; assay type: biochemical, Trichoderma reesei
[9] = Example 6, 5 mM compound, 14 mg/ml AVICEL, 1, 3, 5, 7 or 8 days (FIG. 2 white bars)
[10] = pterin dissolved in DMSO, cellulose 29.5 mg per ml, 7 days

Chain of Trichoderma reesei GH61B polypeptide (Q7Z9M7 20-249): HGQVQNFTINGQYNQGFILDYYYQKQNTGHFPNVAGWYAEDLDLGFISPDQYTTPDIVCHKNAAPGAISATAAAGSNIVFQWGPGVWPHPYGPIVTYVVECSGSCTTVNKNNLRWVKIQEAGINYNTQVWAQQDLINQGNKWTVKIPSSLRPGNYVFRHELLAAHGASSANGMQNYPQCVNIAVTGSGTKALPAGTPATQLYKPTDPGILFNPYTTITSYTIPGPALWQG

## ON=Cc1ccccn1 [pyridine-2-aldoxime]
[1]; [9]
  nitrogen-containing compound effect(no GH61): slightly decreased

## CC(C)=NO [acetone oxime]
[1]; [9]
  nitrogen-containing compound effect(no GH61): less than 1

## Nc1ccccc1N [1,2-benzenediamine]
[1]; 5 mM compound, 14 mg/ml AVICEL, 1, 5 and 8 days (FIG. 1A)
  nitrogen-containing compound effect(no GH61): less than 1

## CC1(C)CCCC(C)(C)N1[O] [TEMPO, 2,2,6,6-tetramethyl-1-piperidinyloxy]
[1]; [9]
  nitrogen-containing compound effect(no GH61): less than 1
[1]; Example 7, TEMPO, late stage of hydrolysis, day 7 (FIGS. 3A, 3B)
  nitrogen-containing compound effect(no GH61): less than 1
[2]
  GH61 effect: greater than 1
  nitrogen-containing compound effect(+GH61): less than 1
[3]
  GH61 effect: greater than 1
[3]; late stage
  nitrogen-containing compound effect(+GH61): less than 1
[4]
  GH61 effect: greater than 1
  nitrogen-containing compound effect(+GH61): less than 1
[5]
  GH61 effect: greater than 1
  nitrogen-containing compound effect(+GH61): less than 1
[6]; GH61 0.4 or 2 mg per g cellulose, 1, 3 and 7 days
  nitrogen-containing compound effect(+GH61): ~1
[6]; GH61 0.4 or 2 mg per g cellulose, day 1
  GH61 effect: greater than 1

## Nc1ccccc1O [2-aminophenol]
[1]; 1 mM 2-aminophenol, cellulose 29.5 mg per ml, 3 days
  nitrogen-containing compound effect(no GH61): 0.951±0.0198
[1]; 1 mM 2-aminophenol, cellulose 29.5 mg per ml, 7 days
  nitrogen-containing compound effect(no GH61): 0.902±0.0301
[1]; 1 mM 2-aminophenol, 3 days
  reduction in hydrolysis: approximately 5%
[1]; 1 mM 2-aminophenol, 7 days
  reduction in hydrolysis: approximately 10%

## C[C@H](O)[C@H](O)[C@H]1CNc2nc(N)[nH]c(=O)c2N1.Cl.Cl [(6R)-5,6,7,8-tetrahydrobiopterin dihydrochloride]
[1]; pterin dissolved in DMSO, cellulose 29.5 mg per ml, 3 days
  nitrogen-containing compound effect(no GH61): 0.924±0.0191
[1]; [10]
  nitrogen-containing compound effect(no GH61): 0.901±0.0332

## CC1Nc2nc(N)[nH]c(=O)c2NC1C.Cl (stereo not shown) [6,7-dimethyl-5,6,7,8-tetrahydropterine hydrochloride]
[1]; pterin dissolved in DMSO, cellulose 29.5 mg per ml, 1 day (so in the source)
  nitrogen-containing compound effect(no GH61): 0.715±0.00557
[1]; [10]
  nitrogen-containing compound effect(no GH61): 0.684±0.0203

## O=C1NC(=O)C(=NO)C(=O)N1 [violuric acid]
[1]; [9]
  nitrogen-containing compound effect(no GH61): very slightly impacted

B1: T. aurantiacus GH61A polypeptide: GH61A polypeptide having cellulolytic enhancing activity, SEQ ID NO: 14, recombinantly prepared in Aspergillus oryzae JaL250 (protein, listed as Thermoascus aurantiacus)
chain: MSFSKIIATAGVLASASLVAGHGFVQNIVIDGKYYGGYLVNQYPYMSNPPEVIAWSTTATDLGFVDGTGYQTPDIICHRGAKPGALTAPVSPGGTVELQWTPWPDSHHGPVINYLAPCNGDCSTVDKTQLEFFKIAESGLINDDNPPGIWASDNLIAANNSWTVTIPTTIAPGNYVLRHEIIALHSAQNQDGAQNYPQCINLQVTGGGSDNPAGTLGTALYHDTDPGILINIYQKLSSYIIPGPPLYTG
[7]; 14 mg/ml AVICEL, cellulase 4 mg/g cellulose, GH61 0.4 mg/g where present, pH 5.0, 50° C., 1 day
  Percent conversion of AVICEL: 16±1%
[7]; same conditions, 3 days
  Percent conversion of AVICEL: 30±4%
[7]; same conditions, 5 days
  Percent conversion of AVICEL: 42.7±0.9%
[7]; same conditions, 7 days
  Percent conversion of AVICEL: 45±4%
[7]; same conditions, 8 days
  Percent conversion of AVICEL: 52.9±0.8%
[8]; most mixtures of compounds at 1 mM
  overall conversion of AVICEL, comparison of GH61 polypeptides: greatest overall conversion

B2: A. fumigatus GH61B polypeptide: GH61 polypeptide having cellulolytic enhancing activity, SEQ ID NO: 30, recombinantly prepared in Aspergillus oryzae JaL355 (protein, listed as Aspergillus fumigatus)
chain: MTLSKITSIAGLLASASLVAGHGFVSGIVADGKYYGGYLVNQYPYMSNPPDTIAWSTTATDLGFVDGTGYQSPDIICHRDAKNGKLTATVAAGSQIEFQWTTWPESHHGPLITYLAPCNGDCATVDKTTLKFVKIAAQGLIDGSNPPGVWADDEMIANNNTATVTIPASYAPGNYVLRHEIIALHSAGNLNGAQNYPQCFNIQITGGGSAQGSGTAGTSLYKNTDPGIKFDIYSDLSGGYPIPGPALFNA
[8]; mixtures of compounds at 3 mM
  overall conversion of AVICEL, comparison of GH61 polypeptides: highest overall conversion

— patent publication US10087478B2, “Compositions comprising a polypeptide having cellulolytic enhancing activity and a nitrogen-containing compound and uses thereof” (priority 2010, dated 2018)
